Laboratory results as given in PubChem BioAssay (NCI).
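Interpolation was linear, between the two tested concentrations surrounding the appropriate level; five concentrations were tested over 48 hours in 96-well plates. Definition used: TGI = concentration required for complete inhibition of growth.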

Tests used:
Test in all cases: NCI-60 cell line screen, 48 h
T-47D breast = test system: T-47D breast
HOP-92 NSCLC = test system: HOP-92 NSCLC
NCI-H23 lung = test system: NCI-H23 lung
UO-31 renal = test system: UO-31 renal
MALME-3M melanoma = test system: MALME-3M melanoma
OVCAR-8 ovarian = test system: OVCAR-8 ovarian
K-562 leukemia = test system: K-562 leukemia
SF-268 CNS = test system: SF-268 CNS
SN12C renal = test system: SN12C renal
786-0 renal = test system: 786-0 renal
OVCAR-5 ovarian = test system: OVCAR-5 ovarian
SNB-75 CNS = test system: SNB-75 CNS
MCF7 breast = test system: MCF7 breast
IGROV1 ovarian = test system: IGROV1 ovarian
EKVX NSCLC = test system: EKVX NSCLC
A549 NSCLC = test system: A549 NSCLC
KM12 colon = test system: KM12 colon
SNB-19 CNS = test system: SNB-19 CNS
MDA-MB-435 = test system: MDA-MB-435
OVCAR-4 ovarian = test system: OVCAR-4 ovarian
RXF 393 renal = test system: RXF 393 renal
SR leukemia = test system: SR leukemia
UACC-257 melanoma = test system: UACC-257 melanoma
MDA-N = test system: MDA-N
NCI/ADR-RES ovarian = test system: NCI/ADR-RES ovarian
DU-145 prostate = test system: DU-145 prostate
NCI-H460 lung = test system: NCI-H460 lung
SW-620 colon = test system: SW-620 colon
SF-539 CNS = test system: SF-539 CNS
HOP-62 NSCLC = test system: HOP-62 NSCLC
SF-295 CNS = test system: SF-295 CNS
PC-3 prostate = test system: PC-3 prostate
LOX IMVI melanoma = test system: LOX IMVI melanoma
HT29 colon = test system: HT29 colon
HCC-2998 colon = test system: HCC-2998 colon
NCI-H522 lung = test system: NCI-H522 lung
SK-MEL-2 melanoma = test system: SK-MEL-2 melanoma
ACHN renal = test system: ACHN renal
A498 renal = test system: A498 renal
HL-60(TB) leukemia = test system: HL-60(TB) leukemia
HCT-15 colon = test system: HCT-15 colon
CAKI-1 renal = test system: CAKI-1 renal
HCT-116 colon = test system: HCT-116 colon
COLO 205 colon = test system: COLO 205 colon
M14 melanoma = test system: M14 melanoma
SK-MEL-5 melanoma = test system: SK-MEL-5 melanoma
TK-10 renal = test system: TK-10 renal
SK-OV-3 ovarian = test system: SK-OV-3 ovarian
U251 CNS = test system: U251 CNS
UACC-62 melanoma = test system: UACC-62 melanoma
SK-MEL-28 melanoma = test system: SK-MEL-28 melanoma
OVCAR-3 ovarian = test system: OVCAR-3 ovarian
RPMI-8226 leukemia = test system: RPMI-8226 leukemia
BT-549 breast = test system: BT-549 breast
HS 578T breast = test system: HS 578T breast
MOLT-4 leukemia = test system: MOLT-4 leukemia
MDA-MB-231 breast = test system: MDA-MB-231 breast
NCI-H226 lung = test system: NCI-H226 lung

OC1(c2ccccc2)CCCCCCCCC(O)(c2ccccc2)CCCCCCCC1 (stereo unspecified)
TGI (T-47D breast): > 100 µM
TGI (HOP-92 NSCLC): > 100 µM
TGI (NCI-H23 lung): > 100 µM
TGI (UO-31 renal): > 100 µM
TGI (MALME-3M melanoma): > 100 µM
TGI (OVCAR-8 ovarian): > 100 µM
TGI (K-562 leukemia): > 100 µM
TGI (SF-268 CNS): > 100 µM
TGI (SN12C renal): > 100 µM
TGI (786-0 renal): > 100 µM
TGI (OVCAR-5 ovarian): > 100 µM
TGI (SNB-75 CNS): > 100 µM
TGI (MCF7 breast): > 100 µM
TGI (IGROV1 ovarian): > 100 µM
TGI (EKVX NSCLC): > 100 µM
TGI (A549 NSCLC): > 100 µM
TGI (KM12 colon): > 100 µM
TGI (SNB-19 CNS): > 100 µM
TGI (MDA-MB-435): > 100 µM
TGI (OVCAR-4 ovarian): > 100 µM
TGI (RXF 393 renal): > 100 µM
TGI (SR leukemia): > 100 µM
TGI (UACC-257 melanoma): > 100 µM
TGI (MDA-N): > 100 µM
TGI (NCI/ADR-RES ovarian): > 100 µM
TGI (DU-145 prostate): > 100 µM
TGI (NCI-H460 lung): > 100 µM
TGI (SW-620 colon): > 100 µM
TGI (SF-539 CNS): > 100 µM
TGI (HOP-62 NSCLC): > 100 µM
TGI (SF-295 CNS): > 100 µM
TGI (PC-3 prostate): > 100 µM
TGI (LOX IMVI melanoma): > 100 µM
TGI (HT29 colon): > 100 µM
TGI (HCC-2998 colon): > 100 µM
TGI (NCI-H522 lung): > 100 µM
TGI (SK-MEL-2 melanoma): > 100 µM
TGI (ACHN renal): > 100 µM
TGI (A498 renal): > 100 µM
TGI (HL-60(TB) leukemia): > 100 µM
TGI (HCT-15 colon): > 100 µM
TGI (CAKI-1 renal): > 100 µM
TGI (HCT-116 colon): > 100 µM
TGI (COLO 205 colon): > 100 µM
TGI (M14 melanoma): > 100 µM
TGI (SK-MEL-5 melanoma): > 100 µM
TGI (TK-10 renal): > 100 µM
TGI (SK-OV-3 ovarian): > 100 µM
TGI (U251 CNS): > 100 µM
TGI (UACC-62 melanoma): > 100 µM
TGI (SK-MEL-28 melanoma): > 100 µM
TGI (OVCAR-3 ovarian): > 100 µM

CC(=O)Nc1ccc(NNc2cc(=O)n(C)c(=O)[nH]2)cc1
TGI (HOP-92 NSCLC): 9.64 µM
TGI (NCI-H23 lung): 31.1 µM
TGI (UO-31 renal): 31 µM
TGI (MALME-3M melanoma): 25.2 µM
TGI (OVCAR-8 ovarian): 45.1 µM
TGI (K-562 leukemia): > 100 µM
TGI (SN12C renal): 23.9 µM
TGI (786-0 renal): 7.63 µM
TGI (OVCAR-5 ovarian): 27.1 µM
TGI (MCF7 breast): 19.5 µM
TGI (IGROV1 ovarian): 27 µM
TGI (EKVX NSCLC): 31.5 µM
TGI (RPMI-8226 leukemia): 9.69 µM
TGI (A549 NSCLC): 34.7 µM
TGI (KM12 colon): 24.4 µM
TGI (SNB-19 CNS): 31.6 µM
TGI (MDA-MB-435): 22.3 µM
TGI (BT-549 breast): 25.7 µM
TGI (OVCAR-4 ovarian): 21.9 µM
TGI (HS 578T breast): 53 µM
TGI (MOLT-4 leukemia): > 100 µM
TGI (SR leukemia): > 100 µM
TGI (UACC-257 melanoma): 26.8 µM
TGI (MDA-N): 23.7 µM
TGI (NCI/ADR-RES ovarian): 43.8 µM
TGI (DU-145 prostate): 29.5 µM
TGI (NCI-H460 lung): 45.2 µM
TGI (SW-620 colon): 7.56 µM
TGI (SF-539 CNS): 30.2 µM
TGI (HOP-62 NSCLC): 30.4 µM
TGI (SF-295 CNS): 29.3 µM
TGI (PC-3 prostate): 12.3 µM
TGI (LOX IMVI melanoma): 5.72 µM
TGI (HT29 colon): 4.71 µM
TGI (HCC-2998 colon): 24 µM
TGI (MDA-MB-231 breast): 24.8 µM
TGI (ACHN renal): 11.4 µM
TGI (NCI-H226 lung): 46 µM
TGI (A498 renal): 49.1 µM
TGI (HL-60(TB) leukemia): 6.98 µM
TGI (HCT-15 colon): 20.6 µM
TGI (HCT-116 colon): 19.3 µM
TGI (COLO 205 colon): 24 µM
TGI (M14 melanoma): 21.8 µM
TGI (SK-MEL-5 melanoma): 31.2 µM
TGI (TK-10 renal): 39 µM
TGI (U251 CNS): 24 µM
TGI (SK-MEL-28 melanoma): 24.2 µM
TGI (OVCAR-3 ovarian): 6.52 µM
